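Five compound concentrations were applied to cells in 96-well plates for 48 hours; endpoints were derived by simple linear interpolation of the resulting dose-response curve. GI50 marks 50% less growth. At the TGI there is no net growth.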

Test systems include OVCAR-4 ovarian; 786-0 renal; SK-MEL-28 melanoma; NCI-H23 lung; CCRF-CEM leukemia; TK-10 renal; CAKI-1 renal; A498 renal; NCI-H460 lung.
What all share (test): NCI anticancer screen, dose series, 48 h

Regarding `Nc1ccc(Nc2nc(F)nc(-c3c4ccccc4c4n3CCS4)n2)cc1`, the TGI was found to be 29.4 µM in the assay with OVCAR-4 ovarian; 32 µM in the assay with 786-0 renal; 33.3 µM in the assay with SK-MEL-28 melanoma; 32.7 µM in the assay on NCI-H23 lung; 62.2 µM with CCRF-CEM leukemia; 34.2 µM in the assay on TK-10 renal. For the same compound, the TGI in the assay on CAKI-1 renal was 23.6 µM.
For the compound `CC(=O)OC12c3ccccc3C1CCCCCC21OCCCO1` (stereo unspecified), the TGI in the assay with OVCAR-4 ovarian, with 786-0 renal, in the assay on SK-MEL-28 melanoma, in the assay on NCI-H23 lung, with CCRF-CEM leukemia and in the assay on TK-10 renal was above 100 µM throughout. Besides, the TGI in the assay on A498 renal, with CAKI-1 renal and in the assay with NCI-H460 lung was above 100 µM in each case.
`O=C(OCCOCBr)c1ccccc1`: the TGI in the assay on OVCAR-4 ovarian, with 786-0 renal, in the assay with SK-MEL-28 melanoma, in the assay with NCI-H23 lung, with CCRF-CEM leukemia and in the assay with TK-10 renal was above 100 µM each time. Moreover, the TGI in the assay with A498 renal, in the assay on CAKI-1 renal and with NCI-H460 lung was above 100 µM throughout.
In the case of `O=C(CCC(=O)Nc1ccc(Cl)cc1)CC(=O)c1ccc(F)cc1`, the TGI with OVCAR-4 ovarian, in the assay with 786-0 renal, in the assay with SK-MEL-28 melanoma, in the assay with NCI-H23 lung, in the assay with TK-10 renal and in the assay on CAKI-1 renal was above 100 µM throughout. In the assay on NCI-H460 lung, this compound showed a TGI above 100 µM.
`O=c1[nH]c(Br)nc2c(Br)c[nH]c12`: the TGI in the assay on OVCAR-4 ovarian, in the assay on 786-0 renal, in the assay on SK-MEL-28 melanoma, in the assay on NCI-H23 lung, in the assay on CCRF-CEM leukemia and in the assay with TK-10 renal was above 100 µM each time. The TGI in the assay with A498 renal, in the assay with CAKI-1 renal and in the assay on NCI-H460 lung was above 100 µM in each case.
For the compound `O=C(Nc1c(-c2nc3ccccc3[nH]2)sc(=S)n1-c1ccccc1)c1ccccc1`, the TGI with 786-0 renal, in the assay on SK-MEL-28 melanoma, in the assay with NCI-H23 lung, in the assay on CCRF-CEM leukemia, with TK-10 renal and with A498 renal was above 100 µM throughout. For the same compound, the TGI in the assay with CAKI-1 renal was above 100 µM.
Turning to `C=C1CC(CCCl)(c2ccccc2)OC1=O` (stereo unspecified), the TGI with OVCAR-4 ovarian is above 100 µM; with 786-0 renal, 31.7 µM; in the assay on SK-MEL-28 melanoma, 22.2 µM; in the assay on NCI-H23 lung, above 100 µM; in the assay with CCRF-CEM leukemia, 49.2 µM; with TK-10 renal, above 77.7 µM. In addition, the TGI in the assay on A498 renal and with NCI-H460 lung was above 100 µM in each case.
For `O=c1c2ccc3cccc4c(=O)cc(c5ccccc15)-c2c34`, the TGI in the assay with OVCAR-4 ovarian, in the assay on 786-0 renal, with SK-MEL-28 melanoma, in the assay with NCI-H23 lung, with CCRF-CEM leukemia and in the assay with TK-10 renal was above 100 µM in each case. In addition, the TGI in the assay with A498 renal, with CAKI-1 renal and with NCI-H460 lung was above 100 µM each time.
On to `CCC[CH2][Sn]([CH2]CCC)([O]C(=O)c1cccc(F)c1)[O]C(=O)c1cccc(F)c1`, for which the GI50 in the assay on OVCAR-4 ovarian was 2.05 µM; in the assay with 786-0 renal it was 1.19 µM; in the assay with SK-MEL-28 melanoma, 0.703 µM; with NCI-H23 lung, 0.329 µM; in the assay with CCRF-CEM leukemia it was 0.239 µM; with TK-10 renal it was 1.29 µM. Moreover, the GI50 with A498 renal is 0.467 µM; with CAKI-1 renal it was 0.369 µM; in the assay on NCI-H460 lung, 2.08 µM. The TGI in the assay on OVCAR-4 ovarian is 3.83 µM; with 786-0 renal, 2.49 µM; in the assay on SK-MEL-28 melanoma, 2.02 µM; in the assay on NCI-H23 lung, 1.57 µM; in the assay on CCRF-CEM leukemia, 0.832 µM; with TK-10 renal it was 2.58 µM. The TGI came to 1.98 µM in the assay with A498 renal, 1.43 µM in the assay on CAKI-1 renal and 5.38 µM in the assay on NCI-H460 lung.
In the case of `CC(C)C(=O)N[C@@H](C)C(=O)N(Cc1ccc2ccccc2c1)N=O`, the TGI in the assay on OVCAR-4 ovarian, in the assay on 786-0 renal, in the assay with SK-MEL-28 melanoma, with CCRF-CEM leukemia, with TK-10 renal and in the assay with A498 renal was above 100 µM in each case. Also, the TGI in the assay with CAKI-1 renal and with NCI-H460 lung was above 100 µM each time.
As for `O=C(O)/C(=C/c1ccccc1[N+](=O)[O-])c1ccccc1`, the TGI with OVCAR-4 ovarian, in the assay on 786-0 renal, in the assay on SK-MEL-28 melanoma, with NCI-H23 lung, in the assay with TK-10 renal and in the assay on A498 renal was above 100 µM each time. Further, the TGI with CAKI-1 renal and in the assay with NCI-H460 lung was above 100 µM each time.
`N=C(c1ccccc1)N(O)C1CCCCC1`: the TGI in the assay with OVCAR-4 ovarian, with 786-0 renal, in the assay with SK-MEL-28 melanoma, with NCI-H23 lung, in the assay with TK-10 renal and with CAKI-1 renal was above 100 µM throughout. This compound also yielded a TGI in the assay on NCI-H460 lung above 100 µM.
Consider `CC(=O)OC1CCn2nnc(COC(=O)NC(C)C)c21` (stereo unspecified), for which the TGI in the assay on OVCAR-4 ovarian, in the assay on 786-0 renal, with SK-MEL-28 melanoma, with NCI-H23 lung, with TK-10 renal and in the assay with CAKI-1 renal was above 100 µM throughout. Further, in the assay on NCI-H460 lung, the TGI is above 100 µM.
As for `Cn1c(CCC#N)nc2ccc(Br)cc2c1=O`, the TGI in the assay with OVCAR-4 ovarian, in the assay on 786-0 renal, with SK-MEL-28 melanoma, with NCI-H23 lung, in the assay on CCRF-CEM leukemia and in the assay with TK-10 renal was above 100 µM in each case. Further, the TGI with A498 renal, in the assay with CAKI-1 renal and with NCI-H460 lung was above 100 µM each time.
Regarding `CCCNCc1nc2ccc(Br)cc2c(=O)n1CCC`, the TGI came out at 27.7 µM with OVCAR-4 ovarian; 29.5 µM in the assay with 786-0 renal; 29 µM in the assay on SK-MEL-28 melanoma; 26.2 µM with NCI-H23 lung; 36.3 µM in the assay on CCRF-CEM leukemia; 32 µM in the assay with A498 renal.
On to `Cc1ccccc1C(=O)Oc1ccc(Oc2ccccc2)cc1`, for which the TGI in the assay on OVCAR-4 ovarian, in the assay on 786-0 renal, in the assay with NCI-H23 lung, in the assay with CCRF-CEM leukemia, in the assay on TK-10 renal and in the assay on A498 renal was above 100 µM throughout. Also, the TGI with CAKI-1 renal and with NCI-H460 lung was above 100 µM in each case.
